US11612604B2, “Methods of treating cancer with PLK4 inhibitors” (LUDWIG INSTITUTE FOR CANCER RESEARCH LTD, priority 2017, dated 2023)

Target: T1, PLK4 (Homo sapiens, UniProt O00444)
T1 sequence (O00444 1-970): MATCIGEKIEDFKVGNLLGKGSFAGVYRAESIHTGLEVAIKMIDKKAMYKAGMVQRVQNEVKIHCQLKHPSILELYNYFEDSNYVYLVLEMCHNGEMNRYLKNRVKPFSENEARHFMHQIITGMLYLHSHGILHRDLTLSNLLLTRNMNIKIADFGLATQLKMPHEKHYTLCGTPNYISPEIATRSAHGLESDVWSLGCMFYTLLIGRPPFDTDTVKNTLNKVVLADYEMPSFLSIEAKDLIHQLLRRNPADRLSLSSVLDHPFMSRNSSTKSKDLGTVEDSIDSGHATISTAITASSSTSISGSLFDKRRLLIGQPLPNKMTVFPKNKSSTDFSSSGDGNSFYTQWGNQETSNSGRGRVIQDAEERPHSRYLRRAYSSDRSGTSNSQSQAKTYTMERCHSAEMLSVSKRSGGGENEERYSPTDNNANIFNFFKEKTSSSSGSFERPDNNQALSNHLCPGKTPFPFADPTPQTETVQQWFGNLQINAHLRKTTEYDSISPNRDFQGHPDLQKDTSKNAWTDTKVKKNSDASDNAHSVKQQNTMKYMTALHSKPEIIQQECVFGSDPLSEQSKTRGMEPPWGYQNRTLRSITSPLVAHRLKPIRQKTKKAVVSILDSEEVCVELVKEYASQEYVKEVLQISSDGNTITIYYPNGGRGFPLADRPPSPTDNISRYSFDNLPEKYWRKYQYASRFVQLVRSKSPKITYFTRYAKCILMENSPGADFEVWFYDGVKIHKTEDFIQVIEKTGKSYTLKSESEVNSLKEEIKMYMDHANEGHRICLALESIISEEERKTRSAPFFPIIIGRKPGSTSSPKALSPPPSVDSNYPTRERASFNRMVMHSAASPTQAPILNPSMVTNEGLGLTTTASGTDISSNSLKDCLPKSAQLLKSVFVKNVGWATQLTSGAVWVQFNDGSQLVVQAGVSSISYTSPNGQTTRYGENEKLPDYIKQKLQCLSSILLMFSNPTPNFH
Assay: Activity (IC50) of the Table 1 compounds as PLK4 inhibitors
Assay type: biochemical
Settings: Table 1, IC50 class

Row | Structure (SMILES) | IC50 [nM]
1 | CCNc1nc(Sc2ccc(NC(=O)C3CC3)cc2)nc(Nc2cc(C)[nH]n2)c1C | < 100
2 | Cc1cc(Nc2nc(Sc3ccc(NC(=O)C4CC4)cc3)nc(NC(C)C)c2C)n[nH]1 | < 100
3 | CCN(C)c1nc(Sc2ccc(NC(C)=O)cc2)nc(Nc2cc(C)[nH]n2)c1C | < 100
4 | COc1c(Nc2cc(C)[nH]n2)nc(Sc2ccc(NC(C)=O)cc2)nc1N1CCC(CCN2CCOCC2)CC1 | < 100
5 | CCc1cc(Nc2nc(SC)nc(N3CCN(CCN(C)C)CC3)c2OC)n[nH]1 | < 100
6 | COc1c(Nc2cc(C)[nH]n2)nc(Sc2ccc(NC(C)=O)nc2)nc1N1CCOCC1 | < 100
7 | COc1c(Nc2cc(C)[nH]n2)nc(Sc2ccc(S(=O)(=O)C(C)(C)c3cccc([N+](=O)[O-])c3F)cc2F)nc1N1CCN(C(C)=O)CC1 | < 100
8 | COc1c(Nc2cc(C)[nH]n2)nc(Sc2ccc(S(=O)(=O)C(C)(C)c3c(F)c(F)cc(F)c3F)cc2F)nc1N1CCC(CCNC(C)=O)CC1 | < 100
9 | COc1c(Nc2cc(C)[nH]n2)nc(Sc2ccc(S(=O)(=O)C(C)(C)c3c(F)c(F)cc(F)c3F)cc2F)nc1N1CCC(CCN)CC1 | < 100
10 | COc1c(Nc2cc(C)[nH]n2)nc(Sc2ccc(S(=O)(=O)C3(c4cccc([N+](=O)[O-])c4F)CC3)cc2F)nc1N1CCN(CCNC(C)=O)CC1 | < 100
11 | COc1c(Nc2cc(C)[nH]n2)nc(Sc2ccc(S(=O)(=O)C(C)(C)c3c(F)c(F)cc(F)c3F)cc2F)nc1N1CCN(C(C)=O)CC1 | < 100
12 | COc1c(Nc2cc(C)[nH]n2)nc(Sc2ccc(S(=O)(=O)C(C)(C)c3c(F)c(F)cc(F)c3F)cc2F)nc1N1CCC(N)C1 (stereo not drawn) | < 100
13 | COc1c(Nc2cc(C)[nH]n2)nc(Sc2ccc(S(=O)(=O)C(C)(C)c3c(F)c(F)cc(F)c3F)cc2F)nc1N1CCC(N)CC1 | < 100
14 | COc1c(Nc2cc(C)[nH]n2)nc(Sc2ccc(S(=O)(=O)C(C)(C)c3cccc([N+](=O)[O-])c3F)cc2F)nc1N1CCC(N)C1 (stereo not drawn) | < 100
15 | COc1c(Nc2cc(C)[nH]n2)nc(Sc2ccc(S(=O)(=O)Cc3cccc([N+](=O)[O-])c3F)cc2F)nc1N1CCC(CC(N)=O)CC1 | < 100
16 | COc1c(Nc2cc(C)[nH]n2)nc(Sc2ccc(S(=O)(=O)Cc3cccc([N+](=O)[O-])c3F)cc2F)nc1N1CCC(CCNC(C)=O)CC1 | < 100
17 | COc1c(Nc2cc(C)[nH]n2)nc(Sc2ccc(S(=O)(=O)C(C)(C)c3c(F)c(F)cc(F)c3F)cc2F)nc1N1CCC(CC(N)=O)CC1 | < 100
18 | COc1c(Nc2cc(C)[nH]n2)nc(Sc2ccc(S(=O)(=O)C3(c4cccc([N+](=O)[O-])c4F)CC3)cc2F)nc1N1CCC(CCN(C)C)CC1 | < 100
19 | COc1c(Nc2cc(C)[nH]n2)nc(Sc2ccc(S(=O)(=O)C3(c4cccc([N+](=O)[O-])c4F)CC3)cc2F)nc1N1CCN(CCN(C)C)CC1 | < 100

Row | Structure (SMILES) | IC50 [nM]
20 | COc1c(Nc2cc(C)[nH]n2)nc(Sc2ccc(S(=O)(=O)C3(c4cccc([N+](=O)[O-])c4F)CC3)cc2F)nc1N1CCC(CC(N)=O)CC1 | < 100
21 | COc1c(Nc2cc(C)[nH]n2)nc(Sc2ccc(S(=O)(=O)C(C)(C)c3c(F)c(F)cc(F)c3F)cc2F)nc1N1CCNCC1 | < 100
22 | COc1c(Nc2cc(C)[nH]n2)nc(Sc2ccc(S(=O)(=O)C3(c4cccc([N+](=O)[O-])c4F)CC3)cc2F)nc1N1CCC(C(=O)N(C)C)CC1 | < 100
23 | COc1c(Nc2cc(C)[nH]n2)nc(Sc2ccc(S(=O)(=O)C3(c4cccc([N+](=O)[O-])c4F)CC3)cc2F)nc1N1CCNCC1 | < 100
24 | COc1c(Nc2cc(C)[nH]n2)nc(Sc2ccc(S(=O)(=O)C3(c4cccc([N+](=O)[O-])c4F)CC3)cc2F)nc1N1CCC(N)CC1 | < 100
25 | COc1c(Nc2cc(C)[nH]n2)nc(Sc2ccc(S(=O)(=O)C3(c4cccc([N+](=O)[O-])c4F)CC3)cc2F)nc1N1CCC(CN)CC1 | < 100
26 | COc1c(Nc2cc(C)[nH]n2)nc(Sc2ccc(S(=O)(=O)C(C)(C)c3cccc([N+](=O)[O-])c3F)cc2F)nc1N1CCC(CCNC(=O)C(F)(F)F)CC1 | < 100
27 | COc1c(Nc2cc(C)[nH]n2)nc(Sc2cccc(NC(C)=O)c2)nc1N1CCOCC1 | < 100
28 | COc1c(Nc2cc(C)[nH]n2)nc(Sc2ccc(NC(C)=O)cc2)nc1N1CCN(CC(=O)C2CCCCC2)CC1 | < 100
29 | Cc1cc(Nc2nc(Sc3ccc([N+](=O)[O-])cc3)nc3c2CCC32CCN(C(=O)C(C)(C)C)CC2)n[nH]1 | < 100
30 | COc1c(Nc2cc(C)[nH]n2)nc(Sc2ccc([N+](=O)[O-])cc2)nc1N1CCN(CCN(C)C)CC1 | < 100
31 | COc1c(Nc2cc(C)[nH]n2)nc(Sc2ccc(NC(C)=O)cc2)nc1C1=CCNCC1 | < 100
32 | COc1c(Nc2cc(C)[nH]n2)nc(Sc2ccc(NC(C)=O)cc2)nc1N1CCN(CCN(C)C)C(C)C1 (stereo not drawn) | < 100
33 | COc1c(Nc2cc(C)[nH]n2)nc(Sc2ccc(NC(C)=O)cc2)nc1C1=CCN(CC(=O)N(C)C)CC1 | < 100
34 | COc1c(Nc2cc(C)[nH]n2)nc(Sc2ccc(NC(C)=O)cc2)nc1N1CCN(CCN(C)C)CC1C (stereo not drawn) | < 100
35 | COc1c(Nc2cc(C)[nH]n2)nc(Sc2ccc(NC(C)=O)cc2)nc1C1=CCN(C)CC1 | < 100
36 | Cc1cc(Nc2nc(Sc3ccc(N)cc3)nc3c2CCC32CCN(CCN(C)C)CC2)n[nH]1 | < 100
37 | CCN(C)CCN1CCN(c2nc(Sc3ccc(NC(C)=O)cc3)nc(Nc3cc(C)[nH]n3)c2OC)CC1 | < 100

Results, then the compound that gave them:

Row | IC50 [nM] | Structure (SMILES)
38 | < 100 | Cc1cc(Nc2nc(Sc3ccc(NC(=O)C4CC4)cc3)nc(N3CCN(C)CC3)c2C)n[nH]1
39 | < 100 | CNc1nc(Sc2ccc(NC(=O)C3CC3)cc2)nc(Nc2cc(C)[nH]n2)c1C
40 | < 100 | CCCC(=O)Nc1ccc(Sc2nc(Nc3cc(C)[nH]n3)c(C)c(N3CCN(C)CC3)n2)cc1
41 | < 100 | CC(=O)Nc1ccc(Sc2nc(Nc3cc(C)[nH]n3)c(C)c(N(C)C)n2)cc1
42 | < 100 | COc1c(Nc2cc(C)[nH]n2)nc(Sc2ccc(NC(C)=O)cc2)nc1NC1CCNCC1
43 | < 100 | CCc1cc(Nc2nc(SC)nc(N3CCN(CCN(C)C)CC3)c2C)n[nH]1
44 | < 100 | COc1c(Nc2cc(C)[nH]n2)nc(Sc2ccc(S(=O)(=O)C(C)(C)c3ncc[nH]3)cc2)nc1N1CCN(CCN(C)C)CC1
45 | < 100 | COc1c(Nc2cc(C)[nH]n2)nc(Sc2ccc(S(=O)(=O)C(C)(C)c3cccc([N+](=O)[O-])c3F)cc2F)nc1N1CCC(C(N)=O)CC1
46 | < 100 | COc1c(Nc2cc(C)[nH]n2)nc(Sc2ccc(S(=O)(=O)C(C)(C)c3cccc([N+](=O)[O-])c3F)cc2F)nc1N1CCC(C(=O)N(C)C)CC1
47 | < 100 | COc1c(Nc2cc(C)[nH]n2)nc(Sc2ccc(S(=O)(=O)Cc3cccc([N+](=O)[O-])c3F)cc2F)nc1N1CCC(NC(C)=O)CC1
48 | < 100 | COc1c(Nc2cc(C)[nH]n2)nc(Sc2ccc(S(=O)(=O)C3(c4cccc([N+](=O)[O-])c4F)CC3)cc2F)nc1N1CCC(CN(C)C)CC1
49 | < 100 | COc1c(Nc2cc(C)[nH]n2)nc(Sc2ccc(S(=O)(=O)C3(c4cccc([N+](=O)[O-])c4F)CC3)cc2F)nc1N1CCC(C(N)=O)CC1
50 | < 100 | COc1c(Nc2cc(C)[nH]n2)nc(Sc2ccc(S(=O)(=O)C3(c4c(F)c(F)cc(F)c4F)CC3)cc2F)nc1N1CCOCC1
51 | < 100 | COc1c(Nc2cc(C)[nH]n2)nc(Sc2ccc(S(=O)(=O)C(C)(C)c3cccc([N+](=O)[O-])c3F)cc2F)nc1N1CCC(NC(=O)C(F)(F)F)CC1
52 | < 100 | COc1c(Nc2cc(C)[nH]n2)nc(Sc2ccc(S(=O)(=O)C(C)(C)c3c(F)c(F)cc(F)c3F)cc2F)nc1N1CCC(CN)CC1
53 | < 100 | COc1c(Nc2cc(C)[nH]n2)nc(Sc2ccc(S(=O)(=O)C3(c4cccc([N+](=O)[O-])c4F)CC3)cc2F)nc1N1CCOCC1
54 | < 100 | COc1c(Nc2cc(C)[nH]n2)nc(Sc2ccc(S(=O)(=O)C3(c4cccc([N+](=O)[O-])c4F)CC3)cc2F)nc1N1CCC(NC(C)=O)CC1
55 | < 100 | COc1c(Nc2cc(C)[nH]n2)nc(Sc2ccc(S(=O)(=O)C3(c4cccc([N+](=O)[O-])c4F)CC3)cc2F)nc1N1CCC(NC(=O)C(F)(F)F)CC1
56 | < 100 | COc1c(Nc2cc(C)[nH]n2)nc(Sc2cccc(NC(C)=O)c2)nc1N1CCN(CCN(C)C)CC1
57 | < 100 | COc1c(Nc2cc(C)[nH]n2)nc(Sc2ccc(NC(C)=O)cc2)nc1N1CCN(CC(=O)N2CCOCC2)CC1
58 | 100 to 1000 | Cc1cc(Nc2nc(Sc3ccc([N+](=O)[O-])cc3)nc3c2CCC32CCNCC2)n[nH]1
59 | < 100 | CC(=O)Nc1ccc(Sc2nc(Nc3cc(C)[nH]n3)c3c(n2)C2(CC3)CCN(C(=O)C(C)(C)C)CC2)cc1
60 | < 100 | COc1c(Nc2cc(C)[nH]n2)nc(Sc2ccc(NC(C)=O)cc2)nc1C1=CCN(CCN(C)C)CC1
61 | < 100 | CC(=O)Nc1ccc(Sc2nc(Nc3cc(C)[nH]n3)c3c(n2)C2(CC3)CCN(CCN(C)C)CC2)cc1
62 | < 100 | Cc1cc(Nc2nc(Sc3ccc([N+](=O)[O-])cc3)nc3c2CCC32CCN(CCN(C)C)CC2)n[nH]1
63 | < 100 | COc1c(Nc2cc(C)[nH]n2)nc(Sc2ccc(NC(C)=O)cc2)nc1N1CCN(CCN2CCCC2)CC1
